Bridge positions count the residues as written; N and C are the ends.
Assays:
[1] = system: HCT-15 tumours; assay: In vivo optical imaging of HCT-15 tumour slice against normal colon; set-up: species or system BALB c/A nude (Bom) mice
Description: 54 Female BALB c/A nude (Bom) mice were used in the study. The use of the animals was approved by the local ethics committee. BALB c/A nude is an inbred immunocompromised mouse strain with a high take rate for human tumours as compared to other nude mice strains. The mice were 4 weeks old upon arrival and with a body weight of approx. 20 grams at the start of the study. The animals were housed in individually ventilated cages (IVC, Scanbur BK) with HEPA filtered air. The animals had ad libitum access to “Rat and Mouse nr. 3 Breeding” diet (Scanbur BK) and tap water acidified by addition of HCl to a molar concentration of 1 mM (pH 3.0).
The colon cancer cell HCT-15 is derived from human colon carcinomas and is reported to express c-Met according to Zeng et al [Clin. Exp. Metastasis, 21, 409-417. (2004)]. The cell line was proven to be tumorigenic when inoculated subcutaneously into nude mice [Flatmark et al, Eur. J. Cancer 40, 1593-1598 (2004)].
HCT-15 cells were grown and prepared for subcutaneous inoculation in RPMI (Sigma Cat# R0883) with 10% serum and penicillin/streptomycin. Stocks were made at passage number four (P4) and frozen down for storage in liquid nitrogen at 3×10^7 cells/vial in the culture media containing 5% DMSO. On the day of the transplantation, the cells were thawed quickly in a 37° C. water bath (approx. 2 min), washed and resuspended in PBS/2% serum (centrifugation at 1200 rpm for 10 min). Thorough mixing of cells in the vials was ensured every time cells were aspirated into the dosing syringe. Volumes of 0.1 ml of cell suspension were injected s.c. at the shoulder and at the back using a fine bore needle (25 G) while the animals were under light gas anaesthesia. The animals were then returned to their cages and the tumours were allowed to grow for 13-17 days. […]
Imaging was performed through a clinical laparoscope adapted to use a light source to excite the reporter and a filtering system to extract the fluorescence component. […] The images were visually scored using the standard scoring system employed for receiver operating characteristic analysis.

[2] = biological target: T1, mouse c-Met/Fc chimera (Mus musculus, UniProt P16056); assay: In vitro fluorescence polarisation assay, binding to mouse c-Met; conditions: dye-labelled peptide 20 nM, c-Met/Fc 0-150 nM (tested range)
T1 construct: purchased R&D Systems
T1 sequence (P16056 with tags, fused parts or gaps limits assumed): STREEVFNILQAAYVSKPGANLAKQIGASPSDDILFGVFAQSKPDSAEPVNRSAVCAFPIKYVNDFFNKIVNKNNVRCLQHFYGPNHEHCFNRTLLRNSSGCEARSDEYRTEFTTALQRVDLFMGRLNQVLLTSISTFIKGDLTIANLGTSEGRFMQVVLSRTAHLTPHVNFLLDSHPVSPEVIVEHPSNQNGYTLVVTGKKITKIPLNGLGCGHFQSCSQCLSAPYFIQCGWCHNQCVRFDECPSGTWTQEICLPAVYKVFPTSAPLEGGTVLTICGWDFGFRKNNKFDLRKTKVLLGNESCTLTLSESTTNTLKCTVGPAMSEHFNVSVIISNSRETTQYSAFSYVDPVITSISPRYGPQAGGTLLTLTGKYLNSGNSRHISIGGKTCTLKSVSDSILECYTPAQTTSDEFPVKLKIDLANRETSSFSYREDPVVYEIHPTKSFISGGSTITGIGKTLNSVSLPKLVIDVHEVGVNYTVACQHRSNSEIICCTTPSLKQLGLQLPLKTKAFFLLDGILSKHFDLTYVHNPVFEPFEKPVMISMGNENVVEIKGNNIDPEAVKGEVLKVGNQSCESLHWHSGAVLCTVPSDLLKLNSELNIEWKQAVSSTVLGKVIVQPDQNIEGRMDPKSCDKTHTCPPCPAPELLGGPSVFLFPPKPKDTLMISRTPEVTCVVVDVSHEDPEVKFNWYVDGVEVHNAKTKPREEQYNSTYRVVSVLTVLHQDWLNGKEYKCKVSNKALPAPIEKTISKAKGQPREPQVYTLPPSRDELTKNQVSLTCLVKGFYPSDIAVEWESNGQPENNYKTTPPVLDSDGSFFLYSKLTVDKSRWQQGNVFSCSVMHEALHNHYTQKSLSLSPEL
Method: The principle of the fluorescence polarisation method can briefly be described as follows:
Monochromatic light passes through a horizontal polarizing filter and excites fluorescent molecules in the sample. Only those molecules that oriented properly in the vertically polarized plane adsorb light, become excited, and subsequently emit light. The emitted light is measured in both horizontal and vertical planes. The anistropy value (A), is the ratio between the light intensities following the equation
The fluorescence anistropy measurements were performed in 384-well microplates in a volume of 10 μL in binding buffer (PBS, 0.01% Tween-20, pH 7.5) using a Tecan Safire fluorescence polarisation plate reader (Tecan, US) at ex646/em678 nm. The concentration of dye-labelled peptide was held constant (20 nM) and the concentrations of the human or mouse c-Met/Fc chimera (R&D Systems) or Semaphorin 6A (R&D Systems) were varied from 0-150 nM. Binding mixtures were equilibrated in the microplate for 10 min at 30° C. The observed change in anistropy was fit to the equation
[formula] where robs is the observed anistropy, rfree is the anistropy of the free peptide, rbound is the anistropy of the bound peptide, KD is the dissociation constant, cMet is the total c-Met concentration, and P is the total dye-labelled peptide concentration. […]

Substance | visual identification of tumour against background ([1]; 1 nmol per animal i.v., HCT-15 tumour slice vs normal colon) | tumour to normal ratio ([1]; 1 nmol per animal i.v., HCT-15 tumour slice vs normal colon, ex vivo, 635 nm excitation) | tumour: background ratios (summary in words) ([1]; animal model of cancer, Example 7) | binding to mouse c-Met (in words) [2]
Ac-TGECTCPYWEFRPCECGSYSGAGGGK(ε-Cy5**)-NH2 (Ac-TGECTCPYWEFRPCECGSYSGAGGGK-NH2; disulfide 6-14; disulfide 4-16 (inferred); not fully specified (residue 26); printed as Ac-TGECTCPYWEFRPCECGSYSGAGGGK(ε-Cy5**)-NH2) [Compound 7, negative control; scrambled control peptide with the same dye as Compound 5] | nothing was discernible against background | 1.04 | did not discriminate between tumour and background | –
Ac-Ala-Gly-Ser-Cys-Tyr-Cys-Ser-Gly-Pro-Pro-Arg-Phe-Glu-Cys-Trp-Cys-Tyr-Glu-Thr-Glu-Gly-Thr-Gly-Gly-Gly-Lys(Cy5)-NH2 (Ac-AGSCYCSGPPRFECWCYETEGTGGGK(Cy5)-NH2; also: two disulfides, pairing not given here) [Compound 3] | – | – | – | no binding

Reference: patent US8529874B2, “Peptide imaging agents” (GE Healthcare AS, priority 2007, dated 2013)
